Source: patent publication US6525001B1, “Substituted pyrimidine and pyridine herbicides” (Mid-American Commercialization Corporation, priority 1997, dated 2003)

Assays:
Assay in all cases: Test B pre-/postemergence
Format in all cases: in vivo
Design in all cases: key: 0 is no effect; 10 is complete control
[1] = test system: blackgrass (Alopecurus myosuroides)
Summary of the method: (§1)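 Compounds in a surfactant-containing, non-phytotoxic solvent blend are applied to freshly planted seed (preemergence) and, concurrently, to seedlings of 2 to 18 cm at 1–4 leaves (postemergence). Plants stay in the greenhouse twelve to sixteen days and are then scored visually from 0 (no effect) to 10 (complete control).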

[2] = test system: broadleaf signalgrass (Brachiaria decumbens)
Summary of the method: as §1

[3] = test system: cocklebur (Xanthium strumarium)
Summary of the method: as §1

corn (Zea mays) = test system: corn (Zea mays)
Summary of the method: as §1

[4] = test system: crabgrass (Digitaria sanguinalis)
Summary of the method: as §1

[5] = test system: giant foxtail (Setaria faberii)
Summary of the method: as §1

[6] = test system: momingglory (Ipomoea hederacea)
Summary of the method: as §1

[7] = test system: pigweed (Amaranthus retroflexus)
Summary of the method: as §1

[8] = test system: purple nutsedge (Cyperus rotundus)
Summary of the method: as §1

soybean (Glycine max) = test system: soybean (Glycine max)
Summary of the method: as §1

[9] = test system: sugar beet (Beta vulgaris)
Summary of the method: as §1

[10] = test system: velvetleaf (Abutilon theophrasti)
Summary of the method: as §1

[11] = test system: wheat (Triticum aestivum)
Summary of the method: as §1

wild oat (Avena fatua) = test system: wild oat (Avena fatua)
Summary of the method: as §1

Cc1cnc(-c2ccc(C(F)(F)F)cc2)nc1Cn1ccc(C(F)(F)F)n1 [compound 9]
Plant response rating, Blackgrass ([1]; Rate 62 g/ha, Postemergence): 3 | Blackgrass plant response rating ([1]; Rate 62 g/ha, Preemergence): 4 | Plant response rating, Blackgrass ([1]; Rate 125 g/ha, Postemergence): 8 | Blackgrass plant response rating ([1]; Rate 125 g/ha, Preemergence): 9 | Plant response rating, Blackgrass ([1]; Rate 250 g/ha, Postemergence): 8 | Plant response rating, Blackgrass ([1]; Rate 250 g/ha, Preemergence): 10 | Plant response rating, Blackgrass ([1]; Rate 500 g/ha, Postemergence): 9 | Plant response rating, Blackgrass ([1]; Rate 500 g/ha, Preemergence): 10 | Plant response rating, B. signalgrass ([2]; Rate 62 g/ha, Postemergence): 5 | B. signalgrass plant response rating ([2]; Rate 62 g/ha, Preemergence): 8 | Plant response rating, B. signalgrass ([2]; Rate 125 g/ha, Postemergence): 8 | B. signalgrass plant response rating ([2]; Rate 125 g/ha, Preemergence): 9 | Plant response rating, B. signalgrass ([2]; Rate 250 g/ha, Postemergence): 9 | Plant response rating, B. signalgrass ([2]; Rate 250 g/ha, Preemergence): 10 | Plant response rating, B. signalgrass ([2]; Rate 500 g/ha, Postemergence): 9 | Plant response rating, B. signalgrass ([2]; Rate 500 g/ha, Preemergence): 10 | Plant response rating, Cocklebur ([3]; Rate 62 g/ha, Postemergence): 9 | Cocklebur plant response rating ([3]; Rate 62 g/ha, Preemergence): 0 | Plant response rating, Cocklebur ([3]; Rate 125 g/ha, Postemergence): 9 | Cocklebur plant response rating ([3]; Rate 125 g/ha, Preemergence): 2 | Plant response rating, Cocklebur ([3]; Rate 250 g/ha, Postemergence): 10 | Plant response rating, Cocklebur ([3]; Rate 250 g/ha, Preemergence): 9 | Plant response rating, Cocklebur ([3]; Rate 500 g/ha, Postemergence): 9 | Plant response rating, Cocklebur ([3]; Rate 500 g/ha, Preemergence): 9 | Plant response rating, Corn (corn (Zea mays); Rate 62 g/ha, Postemergence): 3 | Corn plant response rating (corn (Zea mays); Rate 62 g/ha, Preemergence): 0 | Plant response rating, Corn (corn (Zea mays); Rate 125 g/ha, Postemergence): 4 | Corn plant response rating (corn (Zea mays); Rate 125 g/ha, Preemergence): 1 | Plant response rating, Corn (corn (Zea mays); Rate 250 g/ha, Postemergence): 5 | Plant response rating, Corn (corn (Zea mays); Rate 250 g/ha, Preemergence): 3 | Plant response rating, Corn (corn (Zea mays); Rate 500 g/ha, Postemergence): 5 | Plant response rating, Corn (corn (Zea mays); Rate 500 g/ha, Preemergence): 4 | Plant response rating, Crabgrass ([4]; Rate 62 g/ha, Postemergence): 9 | Crabgrass plant response rating ([4]; Rate 62 g/ha, Preemergence): 9 | Plant response rating, Crabgrass ([4]; Rate 125 g/ha, Postemergence): 9 | Crabgrass plant response rating ([4]; Rate 125 g/ha, Preemergence): 10 | Plant response rating, Crabgrass ([4]; Rate 250 g/ha, Postemergence): 10 | Plant response rating, Crabgrass ([4]; Rate 250 g/ha, Preemergence): 10 | Plant response rating, Crabgrass ([4]; Rate 500 g/ha, Postemergence): 10 | Plant response rating, Crabgrass ([4]; Rate 500 g/ha, Preemergence): 10 | Plant response rating, Giant foxtail ([5]; Rate 62 g/ha, Postemergence): 4 | Giant foxtail plant response rating ([5]; Rate 62 g/ha, Preemergence): 10 | Plant response rating, Giant foxtail ([5]; Rate 125 g/ha, Postemergence): 5 | Giant foxtail plant response rating ([5]; Rate 125 g/ha, Preemergence): 10 | Plant response rating, Giant foxtail ([5]; Rate 250 g/ha, Postemergence): 9 | Plant response rating, Giant foxtail ([5]; Rate 250 g/ha, Preemergence): 10 | Plant response rating, Giant foxtail ([5]; Rate 500 g/ha, Postemergence): 9 | Plant response rating, Giant foxtail ([5]; Rate 500 g/ha, Preemergence): 10 | Plant response rating, Morningglory ([6]; Rate 62 g/ha, Postemergence): 10 | Morningglory plant response rating ([6]; Rate 62 g/ha, Preemergence): 8 | Plant response rating, Morningglory ([6]; Rate 125 g/ha, Postemergence): 10 | Morningglory plant response rating ([6]; Rate 125 g/ha, Preemergence): 10 | Plant response rating, Morningglory ([6]; Rate 250 g/ha, Postemergence): 10 | Plant response rating, Morningglory ([6]; Rate 250 g/ha, Preemergence): 10 | Plant response rating, Morningglory ([6]; Rate 500 g/ha, Postemergence): 10 | Plant response rating, Morningglory ([6]; Rate 500 g/ha, Preemergence): 10 | Plant response rating, Redroot pigweed ([7]; Rate 62 g/ha, Postemergence): 10 | Redroot pigweed plant response rating ([7]; Rate 62 g/ha, Preemergence): 9 | Plant response rating, Redroot pigweed ([7]; Rate 125 g/ha, Postemergence): 10 | Redroot pigweed plant response rating ([7]; Rate 125 g/ha, Preemergence): 10 | Plant response rating, Redroot pigweed ([7]; Rate 250 g/ha, Postemergence): 10 | Plant response rating, Redroot pigweed ([7]; Rate 250 g/ha, Preemergence): 10 | Plant response rating, Redroot pigweed ([7]; Rate 500 g/ha, Postemergence): 10 | Plant response rating, Redroot pigweed ([7]; Rate 500 g/ha, Preemergence): 10 | Plant response rating, Nutsedge ([8]; Rate 62 g/ha, Postemergence): 0 | Nutsedge plant response rating ([8]; Rate 62 g/ha, Preemergence): 0 | Plant response rating, Nutsedge ([8]; Rate 125 g/ha, Postemergence): 1 | Nutsedge plant response rating ([8]; Rate 125 g/ha, Preemergence): 0 | Plant response rating, Nutsedge ([8]; Rate 250 g/ha, Postemergence): 3 | Plant response rating, Nutsedge ([8]; Rate 250 g/ha, Preemergence): 0 | Plant response rating, Nutsedge ([8]; Rate 500 g/ha, Postemergence): 3 | Plant response rating, Nutsedge ([8]; Rate 500 g/ha, Preemergence): 0 | Plant response rating, Soybean (soybean (Glycine max); Rate 62 g/ha, Postemergence): 8 | Soybean plant response rating (soybean (Glycine max); Rate 62 g/ha, Preemergence): 1 | Plant response rating, Soybean (soybean (Glycine max); Rate 125 g/ha, Postemergence): 9 | Soybean plant response rating (soybean (Glycine max); Rate 125 g/ha, Preemergence): 1 | Plant response rating, Soybean (soybean (Glycine max); Rate 250 g/ha, Postemergence): 10 | Plant response rating, Soybean (soybean (Glycine max); Rate 250 g/ha, Preemergence): 2 | Plant response rating, Soybean (soybean (Glycine max); Rate 500 g/ha, Postemergence): 9 | Plant response rating, Soybean (soybean (Glycine max); Rate 500 g/ha, Preemergence): 4 | Plant response rating, Sugarbeets ([9]; Rate 62 g/ha, Postemergence): 10 | Sugarbeets plant response rating ([9]; Rate 62 g/ha, Preemergence): 9 | Plant response rating, Sugarbeets ([9]; Rate 125 g/ha, Postemergence): 10 | Sugarbeets plant response rating ([9]; Rate 125 g/ha, Preemergence): 10 | Plant response rating, Sugarbeets ([9]; Rate 250 g/ha, Postemergence): 10 | Plant response rating, Sugarbeets ([9]; Rate 250 g/ha, Preemergence): 10 | Plant response rating, Sugarbeets ([9]; Rate 500 g/ha, Postemergence): 9 | Plant response rating, Sugarbeets ([9]; Rate 500 g/ha, Preemergence): 10 | Plant response rating, Velvetleaf ([10]; Rate 62 g/ha, Postemergence): 10 | Velvetleaf plant response rating ([10]; Rate 62 g/ha, Preemergence): 7 | Plant response rating, Velvetleaf ([10]; Rate 125 g/ha, Postemergence): 10 | Velvetleaf plant response rating ([10]; Rate 125 g/ha, Preemergence): 8 | Plant response rating, Velvetleaf ([10]; Rate 250 g/ha, Postemergence): 10 | Plant response rating, Velvetleaf ([10]; Rate 250 g/ha, Preemergence): 9 | Plant response rating, Velvetleaf ([10]; Rate 500 g/ha, Postemergence): 9 | Plant response rating, Velvetleaf ([10]; Rate 500 g/ha, Preemergence): 9 | Plant response rating, Wheat ([11]; Rate 62 g/ha, Postemergence): 3 | Wheat plant response rating ([11]; Rate 62 g/ha, Preemergence): 1 | Plant response rating, Wheat ([11]; Rate 125 g/ha, Postemergence): 3 | Wheat plant response rating ([11]; Rate 125 g/ha, Preemergence): 2 | Plant response rating, Wheat ([11]; Rate 250 g/ha, Postemergence): 4 | Plant response rating, Wheat ([11]; Rate 250 g/ha, Preemergence): 5 | Plant response rating, Wheat ([11]; Rate 500 g/ha, Postemergence): 6 | Plant response rating, Wheat ([11]; Rate 500 g/ha, Preemergence): 6 | Plant response rating, Wild oats (wild oat (Avena fatua); Rate 62 g/ha, Postemergence): 3 | Wild oats plant response rating (wild oat (Avena fatua); Rate 62 g/ha, Preemergence): 5 | Plant response rating, Wild oats (wild oat (Avena fatua); Rate 125 g/ha, Postemergence): 4 | Wild oats plant response rating (wild oat (Avena fatua); Rate 125 g/ha, Preemergence): 8 | Plant response rating, Wild oats (wild oat (Avena fatua); Rate 250 g/ha, Postemergence): 6 | Plant response rating, Wild oats (wild oat (Avena fatua); Rate 250 g/ha, Preemergence): 9 | Plant response rating, Wild oats (wild oat (Avena fatua); Rate 500 g/ha, Postemergence): 8 | Plant response rating, Wild oats (wild oat (Avena fatua); Rate 500 g/ha, Preemergence): 9
